Assay results taken from patent US11370769B2, “TRPC5 inhibitors and methods of using same” (BOARD OF REGENTS OF THE UNIVERSITY OF NEBRASKA, priority 2017, dated 2022).

Target: T1, TRPC5 channel (Rattus norvegicus, UniProt Q8VD38)
T1 construct: Acutely isolated glomeruli were prepared as described above; from tissue; host or cells: acutely isolated glomeruli (podocytes) of AT1R Tg and WT rats
T1 sequence (Q8VD38 1-974): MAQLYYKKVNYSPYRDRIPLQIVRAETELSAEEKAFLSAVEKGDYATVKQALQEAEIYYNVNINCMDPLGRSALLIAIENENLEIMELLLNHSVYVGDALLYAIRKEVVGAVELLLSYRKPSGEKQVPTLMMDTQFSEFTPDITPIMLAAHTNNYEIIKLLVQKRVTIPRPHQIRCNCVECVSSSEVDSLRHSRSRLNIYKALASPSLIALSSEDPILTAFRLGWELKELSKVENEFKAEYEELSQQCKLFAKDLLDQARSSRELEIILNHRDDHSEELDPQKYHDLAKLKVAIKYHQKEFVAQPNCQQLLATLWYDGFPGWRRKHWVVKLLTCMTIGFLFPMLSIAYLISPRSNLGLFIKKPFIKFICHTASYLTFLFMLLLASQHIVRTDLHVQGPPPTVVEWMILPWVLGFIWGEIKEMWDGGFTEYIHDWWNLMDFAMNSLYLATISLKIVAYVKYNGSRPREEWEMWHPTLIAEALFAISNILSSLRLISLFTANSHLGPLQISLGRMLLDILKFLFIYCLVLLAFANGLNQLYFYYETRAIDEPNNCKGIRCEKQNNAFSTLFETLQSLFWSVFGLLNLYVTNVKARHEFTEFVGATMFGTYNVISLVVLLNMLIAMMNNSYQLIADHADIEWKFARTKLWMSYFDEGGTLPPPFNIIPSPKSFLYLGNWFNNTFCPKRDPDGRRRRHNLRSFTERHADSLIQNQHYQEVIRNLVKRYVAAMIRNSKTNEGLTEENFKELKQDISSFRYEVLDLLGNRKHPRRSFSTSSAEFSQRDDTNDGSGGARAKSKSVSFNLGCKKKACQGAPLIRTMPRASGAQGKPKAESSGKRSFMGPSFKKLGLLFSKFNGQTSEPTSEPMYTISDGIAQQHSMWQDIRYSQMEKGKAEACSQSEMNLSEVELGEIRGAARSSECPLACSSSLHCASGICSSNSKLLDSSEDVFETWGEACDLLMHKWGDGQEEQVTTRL
Experiment: Glomerular inside-out single-channel recordings, riluzole-activated TRPC5 channel activity
Format: cell-based
Settings: Rilu 3 μM
Procedure: Acute glomeruli isolation and Ca^2+-imaging: WT and AT1R Tg littermates were killed and kidneys were quickly dissected and washed with ice-cold PBS. After isolation using the sieving technique as previously described (11), glomeruli were incubated with the Ca^2+ indicator Fura2-AM (1 μM; Invitrogen) at 37° C. for 15 min. The extracellular solution for Ca^2+-imaging contained (in mM) 140 NaCl, 5 KCl, 10 HEPES, 2 MgCl2, 2 CaCl2, 10 glucose, with pH7.4 adjusted with NaOH. Glomerular Ca^2+-imaging was performed using an inverted microscope (Olympus IX70) with a high-speed CCD camera (Hamamatsu Photonics). Images were taken and analyzed using the Metafluor software (Molecular Devices). It should be noted that Fura-2 is most often taken up by podocytes at the periphery of the isolated glomerulus, but the specificity of recordings in podocytes is best confirmed by patch clamp electrophysiology, as described below.
Glomerular single-channel recordings: Acutely isolated glomeruli were prepared as described above. Single-channel recordings were carried out using an Axopatch 200B and Digidata 1550A (Molecular Devices). Bath and pipette solutions for glomerular single-channel recording contained (in mM) 135 CH3SO3Na, 5 CsCl, 2 CaCl2, 1 MgCl2, 10 HEPES, and 10 glucose with pH7.4 adjusted with NaOH. Once in the inside-out configuration, the bath solution was replaced by intracellular solution, containing (in mM) 135 CH3SO3Cs, 10 CsCl, 3 MgATP, 0.2 EGTA, 0.13 CaCl2, and 10 HEPES with pH 7.4 adjusted with CsOH. Patch pipettes, with resistance of 4-8 MΩ, were prepared using a two step-protocol (P-97, Sutter Instrument). Pipettes were fire-polished before use. For inside-out configuration, a giga-seal (>10 GΩ) was established prior to membrane rupture. Data was acquired at 10 kHz sampling frequency, and filtered with low-pass filtering at 1 kHz. Holding membrane potential was at −60 mV. Single-channel analysis was carried out using Clampfit 10.4 software (Molecular Devices).

Row | Compound | block of TRPC5 channel activity, inside-out recordings in intact glomeruli (AT1R Tg rats, Advanced, AC1903 1 μM) | inhibition of riluzole-activated channel activity, inside-out recordings of podocytes (AT1R Tg rat glomeruli at disease onset (Onset), ML204 1 μM) | inhibition of riluzole-activated conductance, inside-out recordings of podocytes (AT1R Tg rat glomeruli, established disease (Advanced), ML204 1 μM)
1 | c1ccc(Cn2c(NCc3ccco3)nc3ccccc32)cc1 [AC1903] | blocks TRPC5 channel activity |  | 
2 | Cc1cc(N2CCCCC2)nc2ccccc12 [ML204, reference compound] |  | significant ML204 inhibition of channel activity | inhibition of a much greater riluzole-activated conductance
